# Target: Carbonic anhydrase 2 (Homo sapiens) (UniProt P00918)
# Description: Inhibition of carbonic anhydrase 2 assessed as inhibition of carbon dioxide hydration
row,logKi,Structure (SMILES)
1,2.11,NS(=O)(=O)c1ccc(C/N=C/c2ccccc2O)cc1
2,2,COc1cc(/C=N/c2ccc(S(N)(=O)=O)cc2)ccc1C(C)=O
3,2.04,CC(=O)Nc1ccc(/C=N/Cc2ccc(S(N)(=O)=O)cc2)cc1
4,1.3,NS(=O)(=O)c1ccc(C/N=C/c2ccc([N+](=O)[O-])cc2)cc1 (stereo in doubt; 45)
5,1.6,CS(=O)(=O)/N=C/C1=C(O)CCC=C1
6,2.46,NS(=O)(=O)c1ccc(/N=C/C2=C(Cl)CCC=C2)cc1
7,2.23,COc1ccccc1/C=N/c1ccc(S(N)(=O)=O)cc1
8,1.6,CC(=O)Nc1ccc(/C=N/CCc2ccc(S(C)(=O)=O)cc2)cc1
9,2.25,NS(=O)(=O)c1ccc(/N=C/c2cccc([N+](=O)[O-])c2)cc1
10,2.15,NS(=O)(=O)c1ccc(C/N=C/c2ccc([N+](=O)[O-])cc2)cc1 (stereo in doubt; 60)
11,2.04,CC(=O)Nc1ccc(/C=N/c2ccc(S(N)(=O)=O)cc2)cc1
12,1.7,NS(=O)(=O)c1ccc(/N=C/C=C/c2ccccc2)cc1
13,2.48,NS(=O)(=O)c1ccc(C/N=C/c2ccccc2[N+](=O)[O-])cc1
14,1.95,NS(=O)(=O)c1ccc(C/N=C/c2ccccc2Cl)cc1
15,2.32,CS(=O)(=O)c1ccc(CC/N=C/c2ccccc2Cl)cc1
16,1.7,NS(=O)(=O)c1ccc(/N=C/c2ccc([N+](=O)[O-])cc2)cc1
17,2.45,NS(=O)(=O)c1ccc(/N=C/c2ccc(Cl)cc2)cc1
18,2.08,COc1ccc(/C=N/Cc2ccc(S(N)(=O)=O)cc2)cc1

# Source: ChEMBL document CHEMBL1154241, “A QSAR study on relationship between structure of sulfonamides and their carbonic anhydrase inhibitory activity using the eigenvalue (EVA) method” (Eur J Med Chem, 2009)
